Test results taken from patent publication US20240368181A1, “QUINOXALINE DERIVATIVES AND USES THEREOF” (Black Diamond Therapeutics, Inc., priority 2021, published 2024).

Columns and labels:
Format in all cases: cell-based
[1] = system: RT-112 (FGFR3-Tacc3 fusion) cells; test: cell proliferation assay (CellTiterGlo), RT-112 cells; settings: Homo sapiens, RT-112, RT112 cells, 72 hours
Method in brief: (§1)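 Cells were suspended, dispensed into plates and incubated with vehicle (DMSO) or test compound at varying concentrations. Growth inhibition was measured by luminescent quantification of intracellular ATP (CellTiterGlo). IC50 values came from growth normalized to vehicle-treated cells taken as viable.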

[2] = system: UM-UC-14 (FGFR3-S249C) cells; test: cell proliferation assay (CellTiterGlo), UM-UC-14 cells; settings: UMUC14, 72 h
Method in brief: as §1

[3] = system: DMS-114 (FGFR1 overexpression) cells; test: cell proliferation assay (CellTiterGlo), DMS-114 cells; settings: Homo sapiens, DMS-114, 72 h
Method in brief: as §1

[4] = system: SNU-16 (FGFR2-amplification) cells; test: cell proliferation assay (CellTiterGlo), SNU-16 cells; settings: Homo sapiens, 72 hours
Method in brief: as §1

| SMILES | IC50 [1] [µM] | IC50 [2] [µM] | IC50 [3] [µM] | IC50 [4] [µM] |
| --- | --- | --- | --- | --- |
| Cc1nc2ccc(Oc3ccc4ncc(-c5cnn([C@H]6C[C@@](C)(O)C6)c5)nc4c3Cl)c(F)c2[nH]1 [Compound 151] | < 0.02 | < 0.02 | 0.02 to 0.1 | < 0.02 |
| Cc1nc2ccc(Oc3ccc4ncc(-c5cnn(CC6CCC(F)(F)CC6)c5)nc4c3Cl)c(F)c2[nH]1 [Compound 152] | 0.02 to 0.1 | 0.02 to 0.1 | 0.1 to 0.4 | 0.02 to 0.1 |
| Cc1nc2ccc(Oc3ccc4ncc(-c5cnn(C6CCC(F)(F)CC6)c5)nc4c3Cl)c(F)c2[nH]1 [Compound 153] | 0.02 to 0.1 | 0.02 to 0.1 | 0.1 to 0.4 | 0.02 to 0.1 |
| Cc1nc2ccc(Oc3ccc4ncc(-c5cnn(CC6CC(F)(F)C6)c5)nc4c3C3=CCOC3)cc2[nH]1 [Compound 179] | < 0.02 | < 0.02 | 0.1 to 0.4 | < 0.02 |
| Cc1nc2ccc(Oc3ccc4ncc(-c5cnn(C6CN(C(=O)N7CC(O)C7)C6)c5)nc4c3Cl)cc2[nH]1 [Compound 183] | 0.1 to 0.4 | 0.1 to 0.4 | ≥ 0.4 | 0.1 to 0.4 |
| Cc1nc2ccc(Oc3ccc4ncc(-c5cnn(C6CN(C(=O)N(C)C)C6)c5)nc4c3Cl)cc2[nH]1 [Compound 184] | 0.02 to 0.1 | 0.02 to 0.1 | ≥ 0.4 | 0.02 to 0.1 |
| Cc1nc2ccc(Oc3ccc4ncc(-c5cnn(C6CN(C(=O)N7CCC7)C6)c5)nc4c3Cl)cc2[nH]1 [Compound 185] | 0.02 to 0.1 | 0.02 to 0.1 | ≥ 0.4 | 0.02 to 0.1 |
| Cc1nc2ccc(Oc3ccc4ncc(-c5cnn(C6CCC(F)(F)CC6)c5)nc4c3Cl)cc2o1 [Compound 186] | ≥ 0.4 | ≥ 0.4 | ≥ 0.4 | ≥ 0.4 |
| Cc1nc2ccc(Oc3ccc4ncc(-c5cnn(C6CC7COCC(C6)N7)c5)nc4c3Cl)cc2[nH]1 (stereo not shown) [Compound 187] | 0.02 to 0.1 | 0.02 to 0.1 | ≥ 0.4 | 0.02 to 0.1 |
| Cc1nc2ccc(Oc3ccc4ncc(-c5cnn(CC(=O)N6CCOC(C)(C)C6)c5)nc4c3Cl)cc2[nH]1 [Compound 188] | 0.02 to 0.1 | 0.02 to 0.1 | ≥ 0.4 | 0.02 to 0.1 |
| Cc1nc2ccc(Oc3ccc4ncc(-c5cnn(C6CCN(C(=O)N7CC(O)C7)CC6)c5)nc4c3Cl)cc2[nH]1 [Compound 189] | 0.02 to 0.1 | 0.02 to 0.1 | ≥ 0.4 | 0.02 to 0.1 |
| Cc1nc2ccc(Oc3ccc4ncc(-c5cnn(C6CN(c7cccc(N(C)C)n7)C6)c5)nc4c3Cl)cc2[nH]1 [Compound 190] | ≥ 0.4 | ≥ 0.4 | ≥ 0.4 | ≥ 0.4 |
| Cc1nc2ccc(Oc3ccc4ncc(-c5cnn(C6CN(c7ccccn7)C6)c5)nc4c3Cl)cc2[nH]1 [Compound 191] | 0.1 to 0.4 | 0.1 to 0.4 | ≥ 0.4 | 0.1 to 0.4 |
| Cc1nc2ccc(Oc3ccc4ncc(-c5cnn(CC6CCNS(=O)(=O)C6)c5)nc4c3Cl)cc2[nH]1 (stereo not shown) [Compound 192] | 0.02 to 0.1 | 0.02 to 0.1 | ≥ 0.4 | 0.02 to 0.1 |
| Cc1nc2ccc(Oc3ccc4ncc(-c5cnn(CC(=O)N6C[C@@H](C)O[C@@H](C)C6)c5)nc4c3Cl)cc2[nH]1 [Compound 193] | 0.02 to 0.1 | 0.1 to 0.4 | ≥ 0.4 | 0.1 to 0.4 |
| Cc1nc2ccc(Oc3ccc4ncc(-c5cnn(C6CCN(c7ccccn7)CC6)c5)nc4c3Cl)cc2[nH]1 [Compound 194] | 0.1 to 0.4 | 0.1 to 0.4 | ≥ 0.4 | 0.1 to 0.4 |
| Cc1nc2ccc(Oc3ccc4ncc(-c5cnn(C(C)(C)C(=O)C6CC[C@H](F)C6)c5)nc4c3Cl)cc2[nH]1 (stereo partly shown) [Compound 195] | 0.02 to 0.1 | 0.02 to 0.1 | ≥ 0.4 | 0.02 to 0.1 |
| Cc1nc2ccc(Oc3ccc4ncc(-c5cnn(C6CN(c7cncc(F)c7)C6)c5)nc4c3Cl)cc2[nH]1 [Compound 196] | 0.1 to 0.4 | 0.1 to 0.4 | ≥ 0.4 | 0.1 to 0.4 |
| Cc1nc2ccc(Oc3ccc4ncc(-c5cnn(C6CCN(c7cncc(F)c7)CC6)c5)nc4c3Cl)cc2[nH]1 [Compound 197] | 0.02 to 0.1 | 0.1 to 0.4 | ≥ 0.4 | 0.1 to 0.4 |
| Cc1nc2ccc(Oc3ccc4ncc(-c5cnn(CCN6CC(O)C6)c5)nc4c3Cl)cc2[nH]1 [Compound 198] | 0.02 to 0.1 | 0.1 to 0.4 | ≥ 0.4 | 0.1 to 0.4 |
| C=C(F)/C=C/n1cc(-c2cnc3ccc(Oc4ccc5nc(C)[nH]c5c4)c(Cl)c3n2)cn1 [Compound 199] | 0.1 to 0.4 | 0.1 to 0.4 | ≥ 0.4 | 0.1 to 0.4 |
| Cc1nc2ccc(Oc3ccc4ncc(-c5cnn(C6CN(C(F)(F)F)C6)c5)nc4c3Cl)cc2[nH]1 [Compound 200] | 0.1 to 0.4 | 0.1 to 0.4 | ≥ 0.4 | 0.1 to 0.4 |

| SMILES | IC50 [1] [µM] | IC50 [2] [µM] | IC50 [3] [µM] | IC50 [4] [µM] |
| --- | --- | --- | --- | --- |
| COC1CN([C@H]2C[C@@H](n3cc(-c4cnc5ccc(Oc6ccc7nc(C)[nH]c7c6)c(Cl)c5n4)cn3)C2)C1 [Compound 201] | 0.02 to 0.1 | 0.02 to 0.1 | ≥ 0.4 | 0.02 to 0.1 |
| COC1CN([C@H]2C[C@H](n3cc(-c4cnc5ccc(Oc6ccc7nc(C)[nH]c7c6)c(Cl)c5n4)cn3)C2)C1 [Compound 202] | 0.02 to 0.1 | 0.02 to 0.1 | ≥ 0.4 | 0.02 to 0.1 |
| Cc1nc2ccc(Oc3ccc4ncc(-c5cnn([C@H]6C[C@H](N7C[C@@H]8C[C@H]7CO8)C6)c5)nc4c3Cl)cc2[nH]1 [Compound 203] | 0.02 to 0.1 | 0.02 to 0.1 | ≥ 0.4 | 0.02 to 0.1 |
| Cc1nc2ccc(Oc3ccc4ncc(-c5cnn([C@H]6C[C@@H](N7C[C@@H]8C[C@H]7CO8)C6)c5)nc4c3Cl)cc2[nH]1 [Compound 204] | 0.02 to 0.1 | 0.02 to 0.1 | ≥ 0.4 | 0.02 to 0.1 |
| Cc1nc2ccc(Oc3ccc4ncc(-c5cnn(C6CC(F)(F)C6)c5)nc4c3Cl)cc2[nH]1 [Compound 205] | 0.1 to 0.4 | 0.1 to 0.4 | ≥ 0.4 | 0.1 to 0.4 |
| Cc1nc2ccc(Oc3ccc4ncc(-c5cnn([C@H]6C[C@H](N7C[C@H]8C[C@@H]7CO8)C6)c5)nc4c3Cl)cc2[nH]1 [Compound 206] | 0.02 to 0.1 | 0.02 to 0.1 | 0.1 to 0.4 | 0.02 to 0.1 |
| Cc1nc2ccc(Oc3ccc4ncc(-c5cnn([C@H]6C[C@@H](N7C[C@H]8C[C@@H]7CO8)C6)c5)nc4c3Cl)cc2[nH]1 [Compound 207] | 0.02 to 0.1 | 0.02 to 0.1 | 0.1 to 0.4 | 0.02 to 0.1 |
| Cc1nc2ccc(Oc3ccc4ncc(-c5cnn(CC(=O)NCC(C)(C)NC=O)c5)nc4c3Cl)cc2[nH]1 [Compound 208] | 0.1 to 0.4 | ≥ 0.4 | ≥ 0.4 | 0.1 to 0.4 |
| Cc1nc2ccc(Oc3ccc4ncc(-c5cnn(C(C)(C)C(=O)N6CCOCC6)c5)nc4c3Cl)cc2[nH]1 [Compound 209] | 0.02 to 0.1 | 0.1 to 0.4 | ≥ 0.4 | 0.1 to 0.4 |
| Cc1nc2ccc(Oc3ccc4ncc(-c5cnn(C(C)(C)C(=O)N6CC[C@@H](F)C6)c5)nc4c3Cl)cc2[nH]1 [Compound 210] | 0.02 to 0.1 | 0.1 to 0.4 | ≥ 0.4 | 0.1 to 0.4 |
| Cc1nc2ccc(Oc3ccc4ncc(-c5cnn(C6CCC(F)(F)C6)c5)nc4c3Cl)cc2[nH]1 (stereo not shown) [Compound 211] | 0.1 to 0.4 | 0.1 to 0.4 | ≥ 0.4 | 0.1 to 0.4 |
| Cc1nc2ccc(Oc3ccc4ncc(-c5cnn([C@H]6CCN(C7COC7)C[C@@H]6F)c5)nc4c3C)cc2[nH]1 [Compound 212] | 0.02 to 0.1 | 0.02 to 0.1 | 0.1 to 0.4 | 0.02 to 0.1 |
| Cc1nc2ccc(Oc3ccc4ncc(-c5cnn([C@H]6C[C@@H](N7CC(O)C7)C6)c5)nc4c3Cl)cc2[nH]1 [Compound 213] | 0.02 to 0.1 | 0.02 to 0.1 | 0.1 to 0.4 | 0.02 to 0.1 |
| Cc1nc2ccc(Oc3ccc4ncc(-c5cnn([C@H]6C[C@H](N7CC(O)C7)C6)c5)nc4c3Cl)cc2[nH]1 [Compound 214] | 0.02 to 0.1 | 0.02 to 0.1 | 0.1 to 0.4 | 0.02 to 0.1 |
| Cc1nc2ccc(Oc3ccc4ncc(-c5cnn(CCN6CCCC6=O)c5)nc4c3Cl)cc2[nH]1 [Compound 215] | 0.02 to 0.1 | 0.02 to 0.1 | ≥ 0.4 | 0.02 to 0.1 |
| Cc1nc2ccc(Oc3ccc4ncc(-c5cnn(CC6CC(F)(F)C6)c5)nc4c3C3CC3)cc2[nH]1 [Compound 216] | 0.1 to 0.4 | 0.1 to 0.4 | ≥ 0.4 | 0.1 to 0.4 |
| Cc1nc2ccc(Oc3ccc4ncc(-c5cnn(C6CN(CC7COC7)C6)c5)nc4c3Cl)cc2[nH]1 [Compound 217] | 0.02 to 0.1 | 0.02 to 0.1 | ≥ 0.4 | 0.02 to 0.1 |
| Cc1nc2ccc(Oc3ccc4ncc(-c5cnn(C6CC7(C6)CN(C6COC6)C7)c5)nc4c3Cl)cc2[nH]1 [Compound 218] | 0.02 to 0.1 | 0.02 to 0.1 | 0.1 to 0.4 | 0.02 to 0.1 |
| CCc1nc2cc(Oc3ccc4ncc(-c5cnn(CC6CC(F)(F)C6)c5)nc4c3Cl)ccc2[nH]1 [Compound 219] | 0.1 to 0.4 | 0.1 to 0.4 | ≥ 0.4 | 0.1 to 0.4 |
| Cc1nc2ccc(Oc3ccc4ncc(-c5cnn(C6CN(CC7(F)CC7)C6)c5)nc4c3Cl)cc2[nH]1 [Compound 220] | 0.02 to 0.1 | 0.02 to 0.1 | ≥ 0.4 | 0.02 to 0.1 |
| Cc1nc2ccc(Oc3ccc4ncc(-c5cnn(C6CN(CC(F)F)C6)c5)nc4c3Cl)cc2[nH]1 [Compound 221] | 0.02 to 0.1 | 0.02 to 0.1 | ≥ 0.4 | 0.02 to 0.1 |
